Experiment: in vitro
Conditions: human, hek293t cells

SMILES	viability at 48 h, 25 µM
C=CC(=O)N1CCC(c2nc3ccccc3o2)CC1 [1-N18, 1-[4-(1,3-benzoxazol-2-yl)piperidin-1-yl]prop-2-en-1-one]	80.1%
O=C(CCl)NC1C=C(c2ccc(Cl)cc2)CCC1 (centres unmarked) [7-P08, 2-chloro-N-[3-(4-chlorophenyl)cyclohex-2-en-1-yl]acetamide]	0.393%
N#CC(=Cc1csc2ccccc12)C(=O)NCc1ccco1 [9-D16, 3-(1-benzothiophen-3-yl)-2-cyano-N-[(furan-2-yl)methyl]prop-2-enamide]	108%
CC(Cl)C(=O)N1CCOCC1c1nc(-c2cccs2)no1 (centres unmarked) [7-B17, 2-chloro-1-{3-[3-(thiophen-2-yl)-1,2,4-oxadiazol-5-yl]morpholin-4-yl}propan-1-one]	75.7%
CCOc1cc(C=C(C#N)C(=O)N2CCCC2)cc(Cl)c1O [8-M06, 3-(3-chloro-5-ethoxy-4-hydroxyphenyl)-2-(pyrrolidine-1-carbonyl)prop-2-enenitrile]	92.1%
NC(=O)c1ccc(NC(=O)CCl)cc1 [4-P04, 4-(2-chloroacetamido)benzamide]	0.712%
O=C(CCl)NCC(F)(F)c1cc(-c2ccccc2)n[nH]1 [7-P20, 2-chloro-N-[2,2-difluoro-2-(3-phenyl-1H-pyrazol-5-yl)ethyl]acetamide]	0.938%
C=CC(=O)N1CCC(c2nc(C3CCC3)no2)CC1 [2-O04, 1-[4-(3-cyclobutyl-1,2,4-oxadiazol-5-yl)piperidin-1-yl]prop-2-en-1-one]	84.1%
CC(C)NC(=O)C(C#N)=Cc1cnn(-c2ccc(Cl)cc2)c1 [8-I08, 3-[1-(4-chlorophenyl)-1H-pyrazol-4-yl]-2-cyano-N-(propan-2-yl)prop-2-enamide]	77.6%
COc1ccc(OC)c(C(C)NC(=O)CCl)c1 (centres unmarked) [4-M19, 2-chloro-N-[1-(2,5-dimethoxyphenyl)ethyl]acetamide]	1.13%
CC(Cl)C(=O)N1CC(c2cc(CO)on2)C1 (centres unmarked) [7-M10, 2-chloro-1-{3-[5-(hydroxymethyl)-1,2-oxazol-3-yl]azetidin-1-yl}propan-1-one]	84.9%
CC(C)c1ccc(C(C)NC(=O)CCl)cc1 (centres unmarked) [4-I05, 2-chloro-N-{1-[4-(propan-2-yl)phenyl]ethyl}acetamide]	1.47%
COc1ccc(N(CC(F)(F)F)C(=O)CCl)cc1 [4-C15, 2-chloro-N-(4-methoxyphenyl)-N-(2,2,2-trifluoroethyl)acetamide]	0.659%
CCc1ccc(NC(=O)C(C)Cl)cc1 (centres unmarked) [4-L15, 2-chloro-N-(4-ethylphenyl)propanamide]	76.6%
Cc1cc(C(=O)CCl)c(C)n1-c1ccccn1 [10-C16, 2-chloro-1-[2,5-dimethyl-1-(pyridin-2-yl)-1H-pyrrol-3-yl]ethan-1-one]	79.6%
Cc1ccc(C=C(C#N)C(=O)N2CCCC2)cc1 [8-E17, 3-(4-methylphenyl)-2-(pyrrolidine-1-carbonyl)prop-2-enenitrile]	75.4%
C=CC(=O)NC(c1ccc(C)cc1)C(C)S(C)(=O)=O (centres unmarked) [2-A10, N-[2-methanesulfonyl-1-(4-methylphenyl)propyl]prop-2-enamide]	100%
CCOc1cc2c(cc1C=C(C#N)C(N)=O)OC(C)C2 (centres unmarked) [9-D04, 2-cyano-3-(5-ethoxy-2-methyl-2,3-dihydro-1-benzofuran-6-yl)prop-2-enamide]	128%
CC(C)C(NC(=O)CCl)c1ccc2c(c1)OCCCO2 (centres unmarked) [4-N14, 2-chloro-N-[1-(3,4-dihydro-2H-1,5-benzodioxepin-7-yl)-2-methylpropyl]acetamide]	28.5%
COc1cc(C=C(C#N)C(=O)NC2CCCCC2C)cc(OC)c1O (centres unmarked) [9-H21, 2-cyano-3-(4-hydroxy-3,5-dimethoxyphenyl)-N-(2-methylcyclohexyl)prop-2-enamide]	95.8%
CC(Cl)C(=O)NC1CCN(c2ccccc2C(F)(F)F)C1 (centres unmarked) [7-C17, 2-chloro-N-{1-[2-(trifluoromethyl)phenyl]pyrrolidin-3-yl}propanamide]	67.5%
N#Cc1cccc(NC2CCN(C(=O)CCl)C2)c1 (centres unmarked) [5-I22, 3-{[1-(2-chloroacetyl)pyrrolidin-3-yl]amino}benzonitrile]	2.25%
CC(Cl)C(=O)NCc1cc(C(F)(F)F)cs1 (centres unmarked) [7-J19, 2-chloro-N-{[4-(trifluoromethyl)thiophen-2-yl]methyl}propanamide]	97.1%
C=CC(=O)N1CC(NC(=O)c2ccoc2CC)C(C)(C)C1 (centres unmarked) [1-L22, N-[4,4-dimethyl-1-(prop-2-enoyl)pyrrolidin-3-yl]-2-ethylfuran-3-carboxamide]	71.3%
CC(Cl)C(=O)N(C)Cc1cc(Cl)cn1C (centres unmarked) [6-P21, 2-chloro-N-[(4-chloro-1-methyl-1H-pyrrol-2-yl)methyl]-N-methylpropanamide]	103%
COc1cc(OC)c(NC(=O)CCl)cc1Cl [4-G11, 2-chloro-N-(5-chloro-2,4-dimethoxyphenyl)acetamide]	0.402%
NS(=O)(=O)c1cccc(N2C(=O)C=CC2=O)c1 [10-I05, 3-(2,5-dioxo-2,5-dihydro-1H-pyrrol-1-yl)benzene-1-sulfonamide]	93.4%

SMILES	viability at 48 h, 25 µM
O=C(CCl)c1ccc(F)cc1F [10-I18, 2-chloro-1-(2,4-difluorophenyl)ethan-1-one]	77.2%
C=CC(=O)N1CCC(C(=O)Nc2nc3cc(F)c(C)cc3s2)CC1 [2-K15, N-(5-fluoro-6-methyl-1,3-benzothiazol-2-yl)-1-(prop-2-enoyl)piperidine-4-carboxamide]	191%
CC(Cl)C(=O)NCC1(n2ccnn2)CC1 (centres unmarked) [6-B20, 2-chloro-N-{[1-(1H-1,2,3-triazol-1-yl)cyclopropyl]methyl}propanamide]	104%
Cc1cc(C(=O)CCl)c(C)n1Cc1ccccc1Cl [10-P16, 2-chloro-1-{1-[(2-chlorophenyl)methyl]-2,5-dimethyl-1H-pyrrol-3-yl}ethan-1-one]	0.942%
C=CC(=O)N1CCC(OC2CCCC2)CC1 [1-L07, 1-[4-(cyclopentyloxy)piperidin-1-yl]prop-2-en-1-one]	96.8%
O=C(CCl)NC(c1ccccc1)C1CCCC1 (centres unmarked) [6-O18, 2-chloro-N-[cyclopentyl(phenyl)methyl]acetamide]	8.29%
COc1cc(CN(C(=O)CCl)C2CCCOC2)ccc1C (centres unmarked) [5-E12, 2-chloro-N-[(3-methoxy-4-methylphenyl)methyl]-N-(oxan-3-yl)acetamide]	0.549%
C=CC(=O)Nc1cnc2cc(C)nn2c1 [2-M13, N-{2-methylpyrazolo[1,5-a]pyrimidin-6-yl}prop-2-enamide]	136%
N#CC(=Cc1ccsc1)C(=O)Nc1ccccc1Cl [9-O05, N-(2-chlorophenyl)-2-cyano-3-(thiophen-3-yl)prop-2-enamide]	150%
CC(Cl)C(=O)N1CCn2c(C#N)ccc2C1C (centres unmarked) [6-F22, 2-(2-chloropropanoyl)-1-methyl-1H,2H,3H,4H-pyrrolo[1,2-a]pyrazine-6-carbonitrile]	98.2%
C=CC(=O)NCC1CS(=O)(=O)c2ccccc2O1 (centres unmarked) [3-N17, N-[(4,4-dioxo-2,3-dihydro-1,4lambda6-benzoxathiin-2-yl)methyl]prop-2-enamide]	79.4%
C=CC(=O)NCc1ncoc1C(F)(F)F [3-E18, N-{[5-(trifluoromethyl)-1,3-oxazol-4-yl]methyl}prop-2-enamide]	93.1%
C=CC(=O)N1CC(C)(C)c2cc(Cl)ccc21 [1-L14, 1-(5-chloro-3,3-dimethyl-2,3-dihydro-1H-indol-1-yl)prop-2-en-1-one]	1.22%
N#CC(=Cc1cnn(-c2ccc(Cl)cc2)c1)C(=O)NC1CCCC1 [8-M10, 3-[1-(4-chlorophenyl)-1H-pyrazol-4-yl]-2-cyano-N-cyclopentylprop-2-enamide]	83.3%
C=CC(=O)NCc1ccc(N2CCCC(C(N)=O)C2)cc1 (centres unmarked) [1-P19, 1-{4-[(prop-2-enamido)methyl]phenyl}piperidine-3-carboxamide]	126%
C=CC(=O)N1CCOCC2(CCOCC2)C1 [2-C10, 1-{3,8-dioxa-11-azaspiro[5.6]dodecan-11-yl}prop-2-en-1-one]	85.4%
C=CCNC(=O)C(C#N)=Cc1ccccc1[N+](=O)[O-] [8-E09, 2-cyano-3-(2-nitrophenyl)-N-(prop-2-en-1-yl)prop-2-enamide]	109%
N#CC(=Cc1cccc2ccccc12)C(=O)NCc1ccco1 [8-N15, 2-cyano-N-[(furan-2-yl)methyl]-3-(naphthalen-1-yl)prop-2-enamide]	91%
C=CC(=O)NC1CCS(=O)(=O)C(C)C1 (centres unmarked) [3-A10, N-(2-methyl-1,1-dioxo-1lambda6-thian-4-yl)prop-2-enamide]	68.8%
Cc1ccc(CNC(=O)C(C)Cl)c2ccccc12 (centres unmarked) [7-O10, 2-chloro-N-[(4-methylnaphthalen-1-yl)methyl]propanamide]	88.6%
CC(=O)Nc1cccc(N2C(=O)C=CC2=O)c1 [10-D09, N-[3-(2,5-dioxo-2,5-dihydro-1H-pyrrol-1-yl)phenyl]acetamide]	104%
Cc1ccsc1C=C(C#N)C(=O)NC1CCCCC1C (centres unmarked) [8-G07, 2-cyano-N-(2-methylcyclohexyl)-3-(3-methylthiophen-2-yl)prop-2-enamide]	61.1%
O=C(CCl)NCc1ccccc1CN1CCCC1=O [6-K14, 2-chloro-N-({2-[(2-oxopyrrolidin-1-yl)methyl]phenyl}methyl)acetamide]	2.03%
CCCCNC(=O)C(C#N)=Cc1cccs1 [9-E17, N-butyl-2-cyano-3-(thiophen-2-yl)prop-2-enamide]	117%
N#CCCN(C(=O)CCl)c1ccccc1F [5-P07, 2-chloro-N-(2-cyanoethyl)-N-(2-fluorophenyl)acetamide]	1.04%
CC(Cl)C(=O)N1CCn2c(nn(CC(=O)N(C)C)c2=O)C1 (centres unmarked) [7-K17, 2-[7-(2-chloropropanoyl)-3-oxo-2H,3H,5H,6H,7H,8H-[1,2,4]triazolo[4,3-a]pyrazin-2-yl]-N,N-dimethylacetamide]	83.1%

Source: PMC11995724, “Antibiotic target discovery by integrated phenotypic and activity-based profiling of electrophilic fragments” (Cell chemical biology, 2025)
